Data: US10208019B2, “GLP-1 receptor agonists and uses thereof” (Pfizer Inc., priority 2016, dated 2019)
Structures can show the parent of a compound that is named as a salt. Where two headings read alike, the source gives them in different places.

How the values were obtained:
human GLP-1R [1] = target: human GLP-1R (Homo sapiens (Human), UniProt P43220, L260F); assay: CHO GLP-1R Clone C6—Assay 2: HTRF cAMP cell-based functional agonist assay (low GLP-1R density); details: for EC50: CHO GLP-1R Clone C6, cAMP HTRF, geometric mean; for Emax: read-out: Assay 2 Emax (%)
human GLP-1R [2] = target: human GLP-1R (Homo sapiens, UniProt P43220, G168S); assay: CHO GLP-1R Clone H6—Assay 1: HTRF cAMP cell-based functional agonist assay (high GLP-1R density); details: for EC50: CHO GLP-1R Clone H6, cAMP HTRF, geometric mean; for Emax: read-out: Assay 1 Emax (%), CHO GLP-1R Clone H6
[3] = CHO GLP-1R Clone C6, relative to saturating concentration of full agonist GLP-1 (1 μM), arithmetic mean
[4] = relative to saturating concentration of full agonist GLP-1 (1 μM), arithmetic mean

Sequence of human GLP-1R (Homo sapiens, UniProt P43220, G168S) (P43220 24-463 G168S limits assumed): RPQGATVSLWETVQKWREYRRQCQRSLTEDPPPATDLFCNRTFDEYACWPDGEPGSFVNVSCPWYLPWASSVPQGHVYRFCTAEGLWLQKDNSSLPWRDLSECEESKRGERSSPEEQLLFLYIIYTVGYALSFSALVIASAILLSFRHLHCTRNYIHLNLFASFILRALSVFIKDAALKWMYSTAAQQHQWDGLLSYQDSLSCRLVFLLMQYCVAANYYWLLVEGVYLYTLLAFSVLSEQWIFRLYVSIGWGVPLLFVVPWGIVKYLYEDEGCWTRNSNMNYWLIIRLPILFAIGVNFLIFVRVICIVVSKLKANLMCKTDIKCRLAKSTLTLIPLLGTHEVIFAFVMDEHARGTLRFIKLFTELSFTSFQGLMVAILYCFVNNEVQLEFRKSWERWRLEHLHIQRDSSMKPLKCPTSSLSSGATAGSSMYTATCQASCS
Sequence of human GLP-1R (Homo sapiens (Human), UniProt P43220, L260F) (P43220 24-463 L260F): as the sequence (P43220 24-463 G168S limits assumed) above, with S145G, L237F counted along it

Row | EC50 (human GLP-1R [1]) [nM] | Emax (human GLP-1R [1]; [3]) [%] | EC50 (human GLP-1R [2]; Assay 1 EC50 (nM)) [nM] | Emax (human GLP-1R [2]; [4]) [%] | EC50 (human GLP-1R [2]; read-out: Assay 1 EC50) [nM] | Assay 1 Emax (%) (human GLP-1R [2]; CHO GLP-1R Clone H6, relative to saturating concentration of full agonist GLP-1 (1 μM), arithmetic mean) | Compound | Assay 2 Emax (%) (human GLP-1R [1]; [3])
1 | 2100 | 100 | 54 | 81 |  |  | COCCn1c(CN2CCN(c3cccc(OCc4ccc(Cl)cc4F)n3)C[C@H]2C)nc2ccc(C(=O)O)cc21 [Example 12A-11, 2-{[(2R)-4-{6-[(4-chloro-2-fluorobenzyl)oxy]pyridin-2-yl}-2-methylpiperazin-1-yl]methyl}-1-(2-methoxyethyl)-1H-benzimidazole-6-carboxylic acid] | 
2 | 28 | 88 |  | 83 | 1.6 |  | N#Cc1ccc(COc2cccc(C3CCN(Cc4nc5ccc(C(=O)O)cc5n4C[C@@H]4CCO4)CC3)n2)cc1 [Example 10A-78, 2-[(4-{6-[(4-cyanobenzyl)oxy]pyridin-2-yl}piperidin-1-yl)methyl]-1-[(2S)-oxetan-2-ylmethyl]-1H-benzimidazole-6-carboxylic acid] | 
3 | 68 | 81 |  | 82 | 2.8 |  | CCn1cnnc1Cn1c(CN2CCC(c3cccc(OCc4ccc(Cl)cc4F)n3)CC2)nc2ccc(C(=O)O)cc21 [Example 10A-07] | 
4 | 270 | 83 |  | 82 | 18 |  | Cn1nccc1Cn1c(CN2CCC(c3cccc(OCc4ccc(Cl)cc4F)n3)CC2)nc2ccc(C(=O)O)cc21 [Example 11A-21, 2-[(4-{6-[(4-chloro-2-fluorobenzyl)oxy]pyridin-2-yl}piperidin-1-yl)methyl]-1-[(1-methyl-1H-pyrazol-5-yl)methyl]-1H-benzimidazole-6-carboxylic acid] | 
5 | 5800 | 85 |  | 62 | 190 |  | O=C(O)c1ccc2nc(CN3CCC(c4cccc(OCc5ccc(Cl)cc5F)n4)CC3)n([C@H]3CCOC3)c2c1 [Example 10A-71] | 
6 | 400 | 100 |  | 88 | 18 |  | CCn1cnnc1Cn1c(CN2CCN(c3cccc(OCc4ccc(Cl)cc4F)n3)C[C@@H]2C)nc2ccc(C(=O)O)cc21 [Example 10A-21] | 
7 | 84 | 83 |  | 71 | 4.7 |  | C[C@H]1CN(c2cccc(OCc3ccc(C#N)cc3F)n2)CCN1Cc1nc2ccc(C(=O)O)cc2n1C[C@H]1CCOC1 [Example 10A-59] | 
8 | 1100 | 90 |  | 99 | 100 |  | COCCn1c(CN2CCC(c3cccc(OCc4ccc(C)cc4)n3)CC2)nc2ccc(C(=O)O)cc21 [Example 8A-01, Ammonium 2-((4-(6-((4-Methylbenzyl)oxy)pyridin-2-yl)piperidin-1-yl)methyl)-1-(2-methoxyethyl)-1H-benzo[d]imidazole-6-carboxylate] | 
9 | 120 | 80 |  |  | 5.2 | 66 | COCCn1c(CN2CCC(c3cccc(OCc4ccc(Cl)cc4F)n3)CC2C)nc2ccc(C(=O)O)cc21 (single isomer, unassigned) [Example 13A-03, cis 2-{[4-{6-[(4-Chloro-2-fluorobenzyl)oxy]pyridin-2-yl}-2-methylpiperidin-1-yl]methyl}-1-(2-methoxyethyl)-1H-benzimidazole-6-carboxylic acid] | 
10 | 140 | 76 |  | 64 | 8.6 |  | O=C(O)c1ccc2nc(CN3CCN(c4cccc(OCc5ccc(Cl)cc5F)n4)CC3)n(C[C@H]3CCO3)c2c1 [Example 10A-48] | 
11 | 78 | 88 |  | 80 | 6 |  | O=C(O)c1ccc2nc(CN3CCC(c4cccc(OCc5ccc(Cl)cc5F)n4)CC3)n(Cc3ncco3)c2n1 [Example 2A-18, 2-[(4-{6-[(4-chloro-2-fluorobenzyl)oxy]pyridin-2-yl}piperidin-1-yl)methyl]-3-(1,3-oxazol-2-ylmethyl)-3H-imidazo[4,5-b]pyridine-5-carboxylic acid] | 
12 | 110 | 89 |  | 95 | 7.9 |  | COCCn1c(CN2CCC(c3cccc(OCc4ccc(Cl)cc4F)n3)CC2)nc2ncc(C(=O)O)cc21 [Example 2A-02, 2-((4-(6-((4-Chloro-2-fluorobenzyl)oxy)pyridin-2-yl)piperidin-1-yl)methyl)-1-(2-methoxyethyl)-1H-imidazo[4,5-b]pyridine-6-carboxylic acid hydrochloride] | 
13 | 150 | 97 |  | 89 | 6.1 |  | COCCn1c(CN2CCN(c3cccc(OCc4ccc(C#N)cc4)n3)C[C@@H]2C)nc2ccc(C(=O)O)cc21 [Example 12A-08, 2-{[(2S)-4-{6-[(4-cyanobenzyl)oxy]pyridin-2-yl}-2-methylpiperazin-1-yl]methyl}-1-(2-methoxyethyl)-1H-benzimidazole-6-carboxylic acid] | 
14 | 1400 | 47 |  | 91 | 190 |  | CO[C@@H]1CCC[C@H]1n1c(CN2CCC(c3cccc(OCc4ccc(Cl)cc4F)n3)CC2)nc2ccc(C(=O)O)cc21 [Example 1A-27, 2-[(4-{6-[(4-chloro-2-fluorobenzyl)oxy]pyridin-2-yl}piperidin-1-yl)methyl]-1-[(1R,2R)-2-methoxycyclopentyl]-1H-benzimidazole-6-carboxylic acid] | 
15 | 190 | 83 |  | 72 | 14 |  | O=C(O)c1ccc2nc(CN3CCC(c4cccc(OCc5ccc(Cl)cc5F)n4)CC3)n(C[C@H]3CCO3)c2n1 [Example 2A-22, 2-[(4-{6-[(4-chloro-2-fluorobenzyl)oxy]pyridin-2-yl}piperidin-1-yl)methyl]-3-[(2R)-oxetan-2-ylmethyl]-3H-imidazo[4,5-b]pyridine-5-carboxylic acid] | 
16 | 24 | 98 |  | 84 | 1.2 |  | N#Cc1ccc(COc2nc(C3CCN(Cc4nc5ccc(C(=O)O)cc5n4C[C@@H]4CCO4)CC3)ccc2F)cc1 [Example 10A-55, 2-[(4-{6-[(4-cyanobenzyl)oxy]-5-fluoropyridin-2-yl}piperidin-1-yl)methyl]-1-[(2S)-oxetan-2-ylmethyl]-1H-benzimidazole-6-carboxylic acid] | 
17 | 1700 | 88 |  | 79 | 120 |  | COCCn1c(CN2CCC(c3cccc(OCc4c(F)cc(Cl)cc4F)n3)CC2)nc2ccc(C(=O)O)cc21 [Example 8A-04, 2-((4-(6-((4-chloro-2,6-difluorobenzyl)oxy)pyridin-2-yl)piperidin-1-yl)methyl)-1-(2-methoxyethyl)-1H-benzo[d]imidazole-6-carboxylic acid] | 
18 | 150 | 100 |  | 80 | 7.9 |  | N#Cc1ccc(COc2cccc(C3CCN(Cc4nc5ccc(C(=O)O)nc5n4Cc4ncco4)CC3)n2)c(F)c1 [Example 2A-19, 2-[(4-{6-[(4-cyano-2-fluorobenzyl)oxy]pyridin-2-yl}piperidin-1-yl)methyl]-3-(1,3-oxazol-2-ylmethyl)-3H-imidazo[4,5-b]pyridine-5-carboxylic acid] | 
19 | 14 | 82 |  | 86 | 1.5 |  | Cn1cncc1Cn1c(CN2CCC(c3cccc(OCc4ccc(C#N)cc4F)n3)CC2)nc2ccc(C(=O)O)cc21 [Example 1A-16, 2-[(4-{6-[(4-cyano-2-fluorobenzyl)oxy]pyridin-2-yl}piperidin-1-yl)methyl]-1-[(1-methyl-1H-imidazol-5-yl)methyl]-1H-benzimidazole-6-carboxylic acid] | 
20 | 230 | 77 |  | 64 | 8.1 |  | CC1(Cn2c(CN3CCC(c4cccc(OCc5ccc(Cl)cc5F)n4)CC3)nc3ccc(C(=O)O)cc32)CCOC1 (stereo not drawn) [Example 11A-14, 2-[(4-{6-[(4-chloro-2-fluorobenzyl)oxy]pyridin-2-yl}piperidin-1-yl)methyl]-1-[(3-methyltetrahydrofuran-3-yl)methyl]-1H-benzimidazole-6-carboxylic acid] | 
21 | 3.2 | 84 |  | 84 | 0.28 |  | C[C@H]1CN(c2cccc(OCc3ccc(Cl)cc3F)n2)CCN1Cc1nc2ccc(C(=O)O)cc2n1C[C@@H]1CCO1 [Example 1A-19, 2-{[(2S)-4-{6-[(4-chloro-2-fluorobenzyl)oxy]pyridin-2-yl}-2-methylpiperazin-1-yl]methyl}-1-[(2S)-oxetan-2-ylmethyl]-1H-benzimidazole-6-carboxylic acid] | 
22 |  | 67 |  | 75 |  |  | COCCn1c(CN2CCN(c3nc(OCc4ccc(Cl)cc4F)ccc3F)CC2)nc2ccc(C(=O)O)cc21 [Example 1A-05, 2-[(4-{6-[(4-chloro-2-fluorobenzyl)oxy]-3-fluoropyridin-2-yl}piperazin-1-yl)methyl]-1-(2-methoxyethyl)-1H-benzimidazole-6-carboxylic acid] | 
23 | 4400 | 110 |  | 68 | 110 |  | O=C(O)c1ccc2nc(CN3CCC(c4cccc(OCc5ccc(Cl)cc5F)n4)CC3)n(CCN3CCCC3=O)c2c1 [Example 10A-12] | 

Row | Compound | EC50 (human GLP-1R [1]) [nM] | Emax (human GLP-1R [1]; [3]) [%] | EC50 (human GLP-1R [2]; Assay 1 EC50 (nM)) [nM] | Emax (human GLP-1R [2]; [4]) [%] | EC50 (human GLP-1R [2]; read-out: Assay 1 EC50) [nM] | Assay 1 Emax (%) (human GLP-1R [2]; CHO GLP-1R Clone H6, relative to saturating concentration of full agonist GLP-1 (1 μM), arithmetic mean) | Assay 2 Emax (%) (human GLP-1R [1]; [3])
24 | N#Cc1ccc(COc2cccc(C3CCN(Cc4nc5ccc(C(=O)O)cc5n4CC4CCCO4)CC3)n2)cc1 (single isomer, unassigned; enantiomer 2) [Example 14A-02, 2-[(4-{6-[(4-cyanobenzyl)oxyhoyridin-2-yl}piperidin-1-yl)methyl]-1-(tetrahydrofuran-2-ylmethyl)-1H-benzimidazole-6-carboxylic acid,enantiomer 2] | 1500 |  |  |  | 94 |  | 69
